“And” between values parts separate entries of the source, which are not always exact repeats. Identical values can stand only once.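 Exposure lasted 48 hours, with cells grown in 96-well plates and compounds tested at five concentrations. GI50 = concentration required for 50% inhibition of growth. TGI denotes the concentration required for complete inhibition of growth.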
Legend:
Assay in all cases: NCI tumour cell line growth inhibition, 48 h
OVCAR-5 ovarian = test system: OVCAR-5 ovarian
SW-620 colon = test system: SW-620 colon
RPMI-8226 leukemia = test system: RPMI-8226 leukemia
NCI-H460 lung = test system: NCI-H460 lung
SK-MEL-2 melanoma = test system: SK-MEL-2 melanoma
COLO 205 colon = test system: COLO 205 colon
SK-MEL-5 melanoma = test system: SK-MEL-5 melanoma
MOLT-4 leukemia = test system: MOLT-4 leukemia
SF-268 CNS = test system: SF-268 CNS
HCT-116 colon = test system: HCT-116 colon
SNB-19 CNS = test system: SNB-19 CNS

SMILES | GI50 (OVCAR-5 ovarian) | TGI (OVCAR-5 ovarian) | GI50 (SW-620 colon) | TGI (SW-620 colon) | GI50 (RPMI-8226 leukemia) | TGI (RPMI-8226 leukemia) | GI50 (NCI-H460 lung) | TGI (NCI-H460 lung) | GI50 (SK-MEL-2 melanoma) | TGI (SK-MEL-2 melanoma) | GI50 (COLO 205 colon) | TGI (COLO 205 colon) | GI50 (SK-MEL-5 melanoma) | TGI (SK-MEL-5 melanoma) | TGI (MOLT-4 leukemia) | TGI (SF-268 CNS) | TGI (HCT-116 colon) | TGI (SNB-19 CNS) | GI50 (SF-268 CNS) | GI50 (HCT-116 colon)
O=C(CCN1CCCC1)Nc1ccc2c(NCCCCc3ccccc3)c3ccccc3nc2c1 | 1380 nM | 2710 nM | 534 nM | 1860 nM | 258 nM | 837 nM | 530 nM | 1760 nM | 1760 nM | 3340 nM | 453 nM | 1870 nM | 1560 nM | 2910 nM |  |  |  |  |  | 
Cc1c2cc[n+](C)cc2c(C)c2c1[nH]c1ccc(O)cc12 |  | > 100000 nM |  | > 100000 nM |  | > 100000 nM |  | 24700 nM |  | > 96900 nM |  | > 91900 nM |  | 58800 nM | 58300 nM | 23700 nM | > 91600 nM | 22500 nM |  | 
CC(=O)O[C@H]1C(=O)[C@]2(C)[C@@H](OC(=O)OCC(O)CO)C[C@H]3OC[C@@]3(OC(C)=O)[C@H]2[C@H](OC(=O)c2ccccc2)[C@]2(O)C[C@H](OC(=O)[C@H](O)[C@@H](NC(=O)c3ccccc3)c3ccccc3)C(C)=C1C2(C)C (some centres not stated) |  | 20900 nM |  | 22100 nM |  | < 10 nM |  | 27600 nM |  |  |  | 683 nM |  | 19600 nM | 31300 nM | > 67800 nM | > 38900 nM | > 100000 nM |  | 
O=c1c(-c2ccccc2)c[nH]c2cc([N+](=O)[O-])c(/C(Cl)=C/c3ccccc3)cc12 |  | > 59500 nM |  | 26800 nM |  | 9980 nM |  | 44800 nM |  | > 100000 nM |  | > 38200 nM |  | 25800 nM | 24000 nM | 16700 nM | 29900 nM | > 54500 nM |  | 
COc1cc2c(cc1-c1c(C)noc1C)ncc1nc(C3CCCCC3)n(C3CCC(OC(F)F)CC3)c12 (configuration not stated) | 3000 nM | > 100000 nM |  |  |  |  | 2530 nM | > 100000 nM |  |  |  |  |  |  |  | > 100000 nM |  |  | 5050 nM | 
CCP(=O)(CC)C(Cl)(Cl)C(=O)NC |  | > 100000 nM |  | > 100000 nM |  | > 100000 nM |  | > 100000 nM |  | > 100000 nM |  | > 100000 nM |  | > 100000 nM | > 100000 nM |  | > 100000 nM | > 100000 nM |  | 
Cc1c2cc[n+](C)cc2c(COC2OC(CO)C(O)C2O)c2c3ccccc3n(C)c12 (configuration not stated) |  | > 100000 nM |  | > 100000 nM |  | > 100000 nM |  | > 100000 nM |  | > 100000 nM |  | > 100000 nM |  | > 100000 nM | > 100000 nM | > 97000 nM | > 100000 nM | > 95700 nM |  | 
CC(C)(C)CC(C)(C)Cc1ccc(OCCOCC[N+](C)(C)Cc2ccccc2)cc1 | 3860 nM | 15800 nM | 1640 nM | 3350 nM |  |  | 1800 nM | 3450 nM |  |  |  |  | 517 nM | 1790 nM |  | 3190 nM |  |  | 1590 nM | 
CC(=O)OC1CC2(O)C(CCC3(C)C(c4ccc(=O)oc4)CCC32O)C2(C)CCC(O)C=C12 (configuration not stated) | 73.8 nM | 277 nM and 260 nM | 10 nM | 170 nM and 56.1 nM | 37.5 nM | 134 nM and 80.3 nM | 37.5 nM | 27.1 nM and 38.8 nM | 37.5 nM | 54.2 nM and 97.6 nM |  | 168 nM and 139 nM | 37.5 nM | 46 nM and 40 nM | 5.4 nM | 149 nM and 43.7 nM | 104 nM and 47.7 nM | 225 nM and 244 nM | 7.96 nM | 4.98 nM
